Values joined by “and” are separate entries in the source; they are usually repeats but may differ in a detail not shown here. Equal values may be shown once. Read-outs that look alike come from different tables or passages of the source.
Tested on: neurons in brain slices
Assay type: cell-based
Settings: for NON-STROKE AVERAGE / surviving neurons, NON-STROKE: non-stroke brain slice; for NON-STROKE AVERAGE / STROKE AVG. / surviving neurons, NON-STROKE / surviving neurons, STROKE: 24 hrs exposure; for NON-STROKE AVERAGE / STROKE AVG.: average neuron count; for STROKE AVG. / surviving neurons, STROKE: stroke brain slice; for surviving neurons, NON-STROKE / surviving neurons, STROKE: single count; for neuroprotective properties: stroke and non-stroke brain slices, result in words
From the text: A negative and positive control experiments were also run for comparison. In the positive control, a known neuroprotective gene and reporter gene (i.e., a green fluorescent protein) were shot into the stroke and non-stroke brain slices. In the negative control, only the reporter gene (i.e., a green fluorescent protein) was shot into the stroke and non-stroke brain slices. […]
A negative and positive control experiments were also run for comparison as described above for Example 1. […]
Two sets of brain slices were transfected with a plasmid containing a reporter gene (e.g. a green fluorescent protein). […] One of the sets of brain slices was treated under conditions to simulate stroke, and the other brain slice was a non-stroke control. Survival of neurons in the brain slices, as indicated by expression of the reporter molecule, was examined by direct neuron counts after 24 hrs. exposure to the compound.

Compound	NON-STROKE AVERAGE (0.781 uM)	STROKE AVG. (0.781 uM)	NON-STROKE AVERAGE (1.562 uM)	STROKE AVG. (1.562 uM)	NON-STROKE AVERAGE (3.125 uM)	STROKE AVG. (3.125 uM)	NON-STROKE AVERAGE (6.25 uM)	STROKE AVG. (6.25 uM)	NON-STROKE AVERAGE (12.5 uM)	STROKE AVG. (12.5 uM)	NON-STROKE AVERAGE (25 uM)	STROKE AVG. (25 uM)	NON-STROKE AVERAGE (50 uM)	STROKE AVG. (50 uM)	NON-STROKE AVERAGE (100 uM)	STROKE AVG. (100 uM)	neuroprotective properties	surviving neurons, STROKE (100 uM)	other results
COC1C(O)[C@H](O[C@H]2CC[C@]3(C)C4CC[C@]5(C)C(C6=CC(=O)OC6)CC[C@]5(O)C4CC[C@@H]3C2)OC(C)[C@@H]1O (stereo partly drawn) [Neriifolin, (3β,5β)-3-[(6-Deoxy-3-O-methyl-α-L-glucopyranosyl)oxyl]-14-hydroxycard-20(22)-enolide]	35	6.4	30.4	10	48.2	5.8	61	19.8	29.75	36.25	60.2	43.4	32.2	17.6	15.6	10.6	exhibits neuroprotective properties	–	surviving neurons, NON-STROKE (25 uM): 49 neurons and 66 neurons and 82 neurons and 42 neurons and 62 neurons
CC=C(C)C(=O)OC1CCC2(C)C3CCC4[C@]5(O)CC(O)[C@@]6(O)C(CN7CC(C)CCC7[C@@]6(C)O)[C@]5(O)C[C@@]42O[C@]13O (stereo partly drawn) [Cevadine, (Z)-4α,9-Epoxycevane-3β,4,12,14,16β,17,20-heptol 3-(2-methyl-2-butenoate)]	26.25	9.5	33.2	9	25.6	6.4	27	8.6	64	38.5	93.6	126	118	86.6	73	70	exhibits neuroprotective properties	53 neurons and 78 neurons and 77 neurons and 56 neurons and 86 neurons	surviving neurons, STROKE (3.125 uM): 9 neurons and 5 neurons and 6 neurons and 7 neurons
O=C1O[C@H]([C@@H](O)CO)C([O-])=C1O.[Na+] [Sodium Ascorbate, Sodium ascorbate, reference compound]	–	–	–	–	–	–	–	–	–	–	12.5	0.5	10	2	2.5	–	did not exhibit neuroprotective properties	–	NON-STROKE AVERAGE (0.3125 uM): 9.5; STROKE AVG. (0.3125 uM): 2.5; NON-STROKE AVERAGE (0.625 uM): 12.5; STROKE AVG. (0.625 uM): 0.5; NON-STROKE AVERAGE (1.25 uM): 10.5; STROKE AVG. (1.25 uM): 0.5; NON-STROKE AVERAGE (2.5 uM): 8; STROKE AVG. (2.5 uM): 0.5; NON-STROKE AVERAGE (5 uM): 19.5; STROKE AVG. (5 uM): 1; NON-STROKE AVERAGE (10 uM): 15.5; STROKE AVG. (10 uM): 2
NC(C(=O)O)c1nnn[nH]1 (racemic) [(RS)-(Tetrazol-5-yl)glycine]	25.6	13.2	28.8	17.2	50.4	28.2	94.8	58.8	65.2	56.6	78	53.2	68.8	89	73.6	79.6	exhibits neuroprotective properties	95 neurons and 76 neurons and 87 neurons and 66 neurons and 74 neurons	surviving neurons, NON-STROKE (12.5 uM): 71 neurons and 61 neurons and 75 neurons and 56 neurons and 63 neurons; surviving neurons, NON-STROKE (100 uM): 72 neurons and 87 neurons and 64 neurons and 62 neurons and 83 neurons

Source: patent US20050107451A1, “Methods for treating conditions, disorders, or diseases involving cell death” (priority 2001, published 2005)
